The values below come from patent US8791267B2, “Biaryl PDE4 inhibitors for treating inflammatory, cardiovascular and CNS disorders” (Decode Genetics EHF, priority 2007, dated 2014).

Counter-ions that a name gives are not always drawn.

The target of this assay is PDE4 (Homo sapiens, UniProt Q08499). Kind of assay: In-vitro assay for PDE4 enzymes, real-time enzyme-coupled spectrophotometric assay (Table 9). Conditions: human PDE4D; activity class, Table 9; read-out: hPDE4D. It is filed as biochemical.
Chain of PDE4 (Q08499 whole entry): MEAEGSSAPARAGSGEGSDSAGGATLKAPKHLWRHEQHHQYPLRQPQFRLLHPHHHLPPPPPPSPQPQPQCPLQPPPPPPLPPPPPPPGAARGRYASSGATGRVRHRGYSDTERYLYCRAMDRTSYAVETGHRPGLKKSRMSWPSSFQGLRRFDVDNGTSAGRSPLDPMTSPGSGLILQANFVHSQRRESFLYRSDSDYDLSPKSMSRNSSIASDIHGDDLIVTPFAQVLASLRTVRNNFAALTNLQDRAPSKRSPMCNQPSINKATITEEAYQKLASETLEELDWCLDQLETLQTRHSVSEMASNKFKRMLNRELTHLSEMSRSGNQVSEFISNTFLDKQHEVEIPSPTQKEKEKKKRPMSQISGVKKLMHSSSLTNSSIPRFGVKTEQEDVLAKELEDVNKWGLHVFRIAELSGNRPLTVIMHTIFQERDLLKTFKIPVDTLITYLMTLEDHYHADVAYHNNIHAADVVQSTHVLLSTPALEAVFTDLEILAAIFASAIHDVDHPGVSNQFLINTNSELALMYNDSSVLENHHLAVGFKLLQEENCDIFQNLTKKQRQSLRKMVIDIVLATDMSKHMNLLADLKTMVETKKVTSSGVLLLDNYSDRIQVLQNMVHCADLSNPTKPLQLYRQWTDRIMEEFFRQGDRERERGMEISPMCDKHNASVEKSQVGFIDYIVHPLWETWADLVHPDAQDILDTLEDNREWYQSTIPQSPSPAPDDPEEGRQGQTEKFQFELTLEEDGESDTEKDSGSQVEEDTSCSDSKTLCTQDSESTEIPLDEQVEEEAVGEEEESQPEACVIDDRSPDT
For the compound `COc1ccc([C@@](C)(O)c2ccc(NC(C)=O)cc2)c(F)c1-c1cccc(Cl)c1` (single isomer, unassigned) [P-561], the IC50 was < 5 µM. The value for `COc1ccc(Cc2ccc(F)cc2)cc1-c1ccc2c(c1)OCO2` [P-003, 5-[5-(4-Fluoro-benzyl)-2-methoxy-phenyl]-benzo[1,3]dioxole] was < 5 µM; that for `COc1ccc(Cn2cncn2)cc1-c1cccc([N+](=O)[O-])c1` [P-005] was < 5 µM. The value for `COCCOc1ccc(Cc2ccc(=O)n(CCOC)n2)cc1-c1cccc([N+](=O)[O-])c1` [P-018, 6-[6-(2-Methoxy-ethoxy)-3′-nitro-biphenyl-3-ylmethyl]-2-(2-methoxy-ethyl)-2H-pyridazin-3-one] was 5 to 20 µM.

Consider `COc1ccc(CN2CCOCC2)nc1-c1cccc([N+](=O)[O-])c1` [P-026, 4-[5-methoxy-6-(3-nitro-phenyl)-pyridin-2-ylmethyl]-morpholine], for which the IC50 lay in the range of 5 to 20 µM. As to `CNC(=O)Cc1ccc(OC)c(-c2cccc([N+](=O)[O-])c2)c1` [P-027], the IC50 was < 5 µM. With `COc1ccc(CN2C(=O)c3ccccc3C2=O)cc1-c1ccc2c(c1)OCO2` [P-052, 2-(3-Benzo[1,3]dioxol-5-yl-4-methoxy-benzyl)-isoindole-1,3-dione] the figure was < 5 µM. With `COc1ccc(Cn2cncn2)nc1-c1cccc(C(F)(F)F)c1` [P-064, 3-methoxy-6-[1,2,4]triazol-1-ylmethyl-2-(3-trifluoromethyl-phenyl)-pyridine] the figure was 5 to 20 µM. With `COc1ccc(Cc2ccc(F)cc2)nc1-c1cccc(C(F)(F)F)c1` [P-065, 6-(4-fluoro-benzyl)-3-methoxy-2-(3-trifluoromethyl-phenyl)-pyridine] the figure was < 5 µM; with `COc1ccc(CN2CC[C@@H](O)C2)cc1-c1cccc(C(F)(F)F)c1` [P-078], 5 to 20 µM. As for `O=[N+]([O-])c1cccc(-c2cc(Cc3ccc(F)cc3)ccc2OC(F)(F)F)c1` [P-080, 5-(4-Fluoro-benzyl)-3′-nitro-2-trifluoromethoxy-biphenyl], the IC50 is < 5 µM. The value for `COc1ccc(Cc2ccc(F)cc2)c(OC)c1-c1cccc([N+](=O)[O-])c1` [P-097] was < 5 µM; that for `COc1ccc(Cc2ccc(F)cc2)c(F)c1-c1cccc(N)c1` [P-098] was < 5 µM; that for `COCc1cccc(-c2cc(Cn3cncn3)ccc2OC)c1` [P-108, 1-(6-Methoxy-3′-methoxymethyl-biphenyl-3-ylmethyl)-1H-[1,2,4]triazole] was < 5 µM. With `COc1ccc(CN2C(=O)CC[C@@H]2CO)cc1-c1cccc([N+](=O)[O-])c1` [P-132, (R)-5-Hydroxymethyl-1-(6-methoxy-3′-nitro-biphenyl-3-ylmethyl)-pyrrolidin-2-one] the figure was 20 to 40 µM. With `COc1ccc(C(O)c2ccc(C#N)cc2)c(O)c1-c1cccc([N+](=O)[O-])c1` (stereo not drawn) [P-137, 4-[Hydroxy-(2-hydroxy-6-methoxy-3′-nitro-biphenyl-3-yl)-methyl]benzonitrile] the figure was < 5 µM. Turning to `COc1ccc(Cc2ccc(F)cc2)c(F)c1-c1cccc(Br)c1` [P-139], the IC50 was < 5 µM. With `COc1ccc(Cc2ccc(F)cc2)cc1-c1ccc2c(c1)OC(F)(F)O2` [P-141, 2,2-Difluoro-5-[5-(4-fluoro-benzyl)-2-methoxy-phenyl]-benzo[1,3]dioxole] the figure was < 5 µM; with `COc1ccc(CO)c(O)c1-c1cccc([N+](=O)[O-])c1` [P-149], < 5 µM; with `COc1ccc(Cc2ccc(F)cc2)cc1-c1cccc(SC)c1` [P-151, 5-(4-Fluoro-benzyl)-2-methoxy-3′-methylsulfanyl-biphenyl], < 5 µM. With `COc1ccc(Cc2ccc(N(C)C)cc2)c(O)c1-c1cccc([N+](=O)[O-])c1` [P-157, 3-(4-Dimethylamino-benzyl)-6-methoxy-3′-nitro-biphenyl-2-ol] the figure was < 5 µM; with `COc1ccc(Cc2ccccc2CNC=O)cc1-c1cccc([N+](=O)[O-])c1` [P-158, N-[2-(6-Methoxy-3′-nitro-biphenyl-3-ylmethyl)-benzyl]-formamide], 5 to 20 µM; with `COc1ccc(Cc2cccc(CNC(=O)OC(C)(C)C)c2)cc1-c1cccc([N+](=O)[O-])c1` [P-160, [3-(6-Methoxy-3′-nitro-biphenyl-3-ylmethyl)-benzyl]-carbamic acid tert-butyl ester], 5 to 20 µM.

With `COc1ccc(Cc2ccc(F)cc2)c(C#N)c1-c1cccc([N+](=O)[O-])c1` [P-163, 3-(4-fluoro-benzyl)-6-methoxy-3′-nitro-biphenyl-2-carbonitrile], the IC50 was < 5 µM. In the case of `COc1ccc(Cc2ccc(NC(C)=O)cc2)c(F)c1-c1cccc(N)c1` [P-167], the IC50 was < 5 µM. Regarding `COc1ccc(Cn2cncn2)cc1-c1cccc([S+](C)[O-])c1` (stereo not drawn) [P-169, 1-(3′-Methanesulfinyl-6-methoxy-biphenyl-3-ylmethyl)-1H-[1,2,4]triazole], the IC50 lay in the range of 5 to 20 µM.

Consider `COc1ccc(-c2cc(Cc3ccc(F)cc3)ccc2OC)cc1C(C)=O` [P-170, 1-[5′-(4-Fluoro-benzyl)-4,2′-dimethoxy-biphenyl-3-yl]-ethanone], for which the IC50 is < 5 µM. `COc1ccc(COc2ccc(NC(C)=O)cc2)c(F)c1-c1cccc(Br)c1` [P-194]: the IC50 is < 5 µM. Take `CC(=O)Nc1ccc(NCc2ccc(O)c(-c3cccc(Cl)c3)c2F)cc1` [P-203, N-{4-[(3′-Chloro-2-fluoro-6-hydroxy-biphenyl-3-ylmethyl)-amino]-phenyl}-acetamide]: the IC50 was < 5 µM. With `COc1ccc(Cc2ccc(OCCN3CCOCC3)cc2)c(F)c1-c1cccc(Cl)c1` [P-219], the IC50 is < 5 µM. As for `COc1ccc(Cc2cccc(OCCN3CCOCC3)c2)c(F)c1-c1cccc(Cl)c1` [P-220], the IC50 was < 5 µM. With `COc1ccc(COc2cccc(NC(C)=O)c2)c(F)c1-c1cccc(Cl)c1` [P-231] the figure was < 5 µM. `COc1ccc(COc2cccc(N)c2)c(F)c1-c1cccc(Cl)c1` [P-232]: the IC50 is < 5 µM. With `COc1ccc(Cc2ccc(NC(=O)CN(C)C)cc2)c(F)c1-c1cccc(Cl)c1` [P-238, N-[4-(3′-chloro-2-fluoro-6-methoxy-biphenyl-3-ylmethyl)-phenyl]-2-dimethylamino-acetamide] the figure was < 5 µM; with `COc1ccc(Cc2ccc(N(C)C)cc2)cc1-c1cccc(Cl)c1` [P-241, [4-(3′-Chloro-6-methoxy-biphenyl-3-ylmethyl)-phenyl]-dimethyl-amine], < 5 µM; with `CCNc1ccc(Cc2ccc(OC)c(-c3cccc(Cl)c3)c2)cc1` [P-247, [4-(3′-Chloro-6-methoxy-biphenyl-3-ylmethyl)-phenyl]-ethylamine; HCl salt], < 5 µM. With `COc1ccc(Cc2ccc([N+](=O)[O-])c(O)c2)c(F)c1-c1cccc(Cl)c1` [P-257] the figure was < 5 µM; with `COc1ccc(Cc2cccc(NS(C)(=O)=O)c2)cc1-c1cccc(Cl)c1` [P-271, N-[3-(3′-Chloro-6-methoxy-biphenyl-3-ylmethyl)-phenyl]-methanesulfonamide], 5 to 20 µM.

In the case of `COc1ccc(Cc2ccc(NC(=O)CN)cc2)c(F)c1-c1cccc(Cl)c1` [P-273], the IC50 was < 5 µM.

Consider `COc1ccc(Cc2ccc(CNS(C)(=O)=O)c(F)c2)c(F)c1-c1cccc(Cl)c1` [P-286], for which the IC50 was < 5 µM. The value for `COc1ccc(N(C)c2ccc(N)cc2)cc1-c1cccc(Cl)c1` [P-288, N-(3′-Chloro-6-methoxy-biphenyl-3-yl)-N-methyl-benzene-1,4-diamine; hydrochloride] was < 5 µM; that for `CNCC(=O)Nc1ccc(Cc2ccc(OC)c(-c3cccc(Cl)c3)c2F)cc1` [P-289] was < 5 µM. With `COc1ccc(N(C)c2ccc(NC(N)=O)cc2)cc1-c1cccc(Cl)c1` [P-293, {4-[(3′-Chloro-6-methoxy-biphenyl-3-yl)-methyl-amino]-phenyl}-urea] the figure was < 5 µM; with `COc1ccc(Nc2ccc(NC(N)=O)cc2)cc1-c1cccc(Cl)c1` [P-294, [4-(3′-Chloro-6-methoxy-biphenyl-3-ylamino)-phenyl]-urea], < 5 µM. Consider `COc1ccc(Cc2nnc(N)o2)cc1-c1cccc(Cl)c1` [P-306, 5-(3′-Chloro-6-methoxy-biphenyl-3-ylmethyl)-[1,3,4]oxadiazol-2-ylamine], for which the IC50 lay in the range of 5 to 20 µM. For the compound `CCOc1ccc(Cc2ccc(NC(C)=O)cc2)c(F)c1-c1cccc(Br)c1` [P-322], the IC50 is < 5 µM. Regarding `COc1ccc(Cc2ccc(N(C)C)cc2)c(F)c1-c1cccc(C(C)=O)c1` [P-326, 1-[3′-(4-Dimethylamino-benzyl)-2′-fluoro-6′-methoxy-biphenyl-3-yl]-ethanone], the IC50 is < 5 µM.

As to `COc1ccc(Cc2ccc(NC(N)=O)cc2)c(F)c1-c1cccc(C(C)O)c1` (stereo not drawn) [P-340, {4-[2-Fluoro-3′-(1-hydroxy-ethyl)-6-methoxy-biphenyl-3-ylmethyl]-phenyl}-urea], the IC50 was < 5 µM.

For `COc1ccc(Cc2ccc(N3CCOCC3)nc2)c(F)c1-c1cccc(Cl)c1` [P-377], the IC50 is < 5 µM. The value for `COc1ccc(Cc2ccc(F)cc2)cc1-n1cc(Cl)cn1` [P-380, 4-Chloro-1-[5-(4-fluoro-benzyl)-2-methoxy-phenyl]-1H-pyrazole] was < 5 µM. With `COc1ccc(Cc2ccc(NC(C)=O)cc2)c(F)c1-c1cccc(N2CCCC2)c1` [P-381, N-[4-(2-Fluoro-6-methoxy-3′-pyrrolidin-1-yl-biphenyl-3-ylmethyl)-phenyl]-acetamide] the figure was < 5 µM; with `COc1ccc(Cc2ccc(F)cc2)cc1-c1cccc(N2CCOCC2)c1` [P-385, 4-[5′-(4-Fluoro-benzyl)-2′-methoxy-biphenyl-3-yl]-morpholine], 5 to 20 µM; with `COc1ccc(Cc2ccc(F)cc2)cc1-n1cc(-c2ccncc2)cn1` [P-389, 4-{1-[5-(4-Fluoro-benzyl)-2-methoxy-phenyl]-1H-pyrazol-4-yl}-pyridine], 5 to 20 µM.

As to `COc1ccc(Cc2ccc(NC(C)=O)cc2)c(F)c1-c1cccc(N2CCOCC2)c1` [P-390, N-[4-(2-Fluoro-6-methoxy-3′-morpholin-4-yl-biphenyl-3-ylmethyl)-phenyl]-acetamide], the IC50 was 5 to 20 µM.
